Reference: DBAASP
≈ marks a conversion by molar mass, not a printed value.

Columns and labels:
Assay in all cases: ≥ marks a high value that may be exact or a test limit, other limits are often not marked, values filed in µg/mL are converted to µM
Bacillus cereus = test system: Bacillus cereus
Escherichia coli = test system: Escherichia coli
Staphylococcus aureus = test system: Staphylococcus aureus
Bacillus subtilis = test system: Bacillus subtilis
Candida albicans = test system: Candida albicans
[1] = test system: Acinetobacter baumannii ATCC 19606
[2] = test system: Escherichia coli ATCC 25922
[3] = test system: Pseudomonas aeruginosa ATCC 27853
[4] = test system: Staphylococcus aureus ATCC 25923

| MIC (Bacillus cereus) [µM] | MIC (Escherichia coli) [µM] | MIC (Staphylococcus aureus) [µM] | Structure (SMILES) | other results |
| --- | --- | --- | --- | --- |
| 30.4 (≈ 64 µg/mL) | 122 (≈ 256 µg/mL) | 7.6 (≈ 16 µg/mL) | CC(C)C[C@H](NC(=O)[C@H](CCCCN)NC(=O)[C@H](Cc1ccccc1)NC(=O)[C@@H](NC(=O)[C@@H](NC(=O)CNC(=O)[C@H](CC(C)C)NC(=O)[C@@H](N)Cc1ccccc1)C(C)C)C(C)C)C(=O)N[C@@H](C)C(=O)N[C@@H](CO)C(=O)N[C@@H](CCCCN)C(=O)N[C@H](C(=O)N[C@H](C(=O)N1CCC[C@H]1C(=O)N[C@@H](C)C(=O)N[C@H](C(=O)N[C@@H](Cc1ccccc1)C(=O)NCC(=O)N[C@@H](CCCCN)C(=O)N[C@H](C(=O)O)C(C)C)C(C)C)C(C)C)C(C)C [FLGVVFKLASKVVPAVFGKV] | – |
| ≥ 125 | > 125 | > 125 | CC(C)C[C@H](NC(=O)[C@@H](N)Cc1ccccc1)C(=O)NCC(=O)NCC(=O)N[C@H](C(=O)N[C@@H](Cc1ccccc1)C(=O)N[C@@H](CCCCN)C(=O)NCC(=O)N[C@@H](C)C(=O)N[C@@H](CO)C(=O)N[C@@H](CCCCN)C(=O)N[C@H](C(=O)N[C@@H](Cc1ccccc1)C(=O)N1CCC[C@H]1C(=O)N[C@@H](C)C(=O)N[C@H](C(=O)N[C@@H](Cc1ccccc1)C(=O)NCC(=O)N[C@@H](CCCCN)C(=O)N[C@H](C(=O)O)C(C)C)C(C)C)C(C)C)C(C)C [FLGGVFKGASKVFPAVFGKV] | – |
| ≥ 59.9 | 59.9 (≈ 128 µg/mL) | > 59.9 | CC(C)C[C@H](NC(=O)[C@@H](N)Cc1ccccc1)C(=O)NCC(=O)N[C@@H](CCCCN)C(=O)N[C@H](C(=O)N[C@@H](Cc1ccccc1)C(=O)N[C@@H](CCCCN)C(=O)NCC(=O)N[C@@H](C)C(=O)N[C@H](C(=O)N[C@@H](CCCCN)C(=O)N[C@H](C(=O)N[C@@H](Cc1ccccc1)C(=O)N1CCC[C@H]1C(=O)N[C@@H](C)C(=O)N[C@H](C(=O)N[C@@H](Cc1ccccc1)C(=O)NCC(=O)N[C@@H](CCCCN)C(=O)N[C@H](C(=O)O)C(C)C)C(C)C)C(C)C)C(C)C)C(C)C [FLGKVFKGAVKVFPAVFGKV] | – |
| – | 3.01 (≈ 9.37 µg/mL) | 1.5 (≈ 4.68 µg/mL) | CC[C@H](C)[C@H](NC(=O)[C@H](CCCN=C(N)N)NC(=O)[C@@H](NC(=O)[C@@H]1CCCN1C(=O)[C@H](CCCN=C(N)N)NC(=O)[C@@H](NC(=O)[C@@H]1CCCN1C(=O)[C@H](CC(C)C)NC(=O)[C@H](CC(C)C)NC(=O)CNC(=O)[C@H](Cc1cnc[nH]1)NC(=O)[C@@H]1CCCN1C(=O)CNC(=O)[C@H](Cc1ccccc1)NC(=O)[C@H](CC(=O)O)NC(=O)[C@H](Cc1c[nH]c2ccccc12)NC(=O)[C@H](C)NC(=O)[C@@H](NC(=O)[C@H](C)N)[C@@H](C)O)[C@@H](C)CC)[C@@H](C)CC)C(=O)N[C@@H](CCCN=C(N)N)C(=O)N1CCC[C@H]1C(=O)N[C@@H](CC(C)C)C(=O)N[C@@H](CS)C(=O)NCC(=O)N[C@@H](CCCCN)C(=O)N[C@@H](CC(=O)O)C(=O)N[C@@H](CCCCN)C(=O)N[C@@H](CO)C(=O)O [ATAWDFGPHGLLPIRPIRIRPLCGKDKS] | MIC (Bacillus subtilis): 24.1 µM (≈ 75 µg/mL); MIC (Candida albicans): 6.02 µM (≈ 18.8 µg/mL) |
| ≥ 125 | > 125 | – | CC[C@H](C)[C@H](NC(=O)[C@H](C)NC(=O)[C@H](CS)NC(=O)[C@H](Cc1ccc(O)cc1)NC(=O)[C@@H](NC(=O)[C@H](CO)NC(=O)[C@@H]1CCCN1C(=O)[C@@H](NC(=O)[C@@H](NC(=O)[C@H](CCCCN)NC(=O)[C@H](CO)NC(=O)[C@H](C)NC(=O)[C@@H](NC(=O)[C@H](CCCCN)NC(=O)CNC(=O)[C@@H](NC(=O)[C@@H](NC(=O)[C@@H](N)CO)C(C)C)[C@@H](C)CC)[C@@H](C)CC)C(C)C)C(C)C)C(C)C)C(=O)N[C@@H](CO)C(=O)N[C@@H](CCCCN)C(=O)O [SVIGKIASKVVPSVYCAISK] | – |
| – | 5.09 (≈ 12.6 µg/mL) | 2.54 (≈ 6.3 µg/mL) | CC(C)C[C@H](NC(=O)CN)C(=O)N[C@@H](Cc1ccccc1)C(=O)NCC(=O)N[C@@H](CCCCN)C(=O)N[C@@H](CO)C(=O)N[C@@H](CO)C(=O)N[C@H](C(=O)N[C@@H](Cc1c[nH]c2ccccc12)C(=O)NCC(=O)N[C@@H](CCCN=C(N)N)C(=O)N[C@@H](CCCCN)C(=O)N[C@@H](Cc1ccc(O)cc1)C(=O)N[C@@H](Cc1ccc(O)cc1)C(=O)N[C@H](C(=O)N[C@@H](CC(=O)O)C(=O)N[C@@H](CC(C)C)C(=O)N[C@@H](C)C(=O)NCC(=O)N[C@@H](CS)C(=O)N[C@@H](C)C(=O)N[C@@H](CCCCN)C(=O)N[C@@H](C)C(=O)O)C(C)C)C(C)C [GLFGKSSVWGRKYYVDLAGCAKA] | MIC (Bacillus subtilis): 2.54 µM (≈ 6.3 µg/mL); MIC (Candida albicans): 1.27 µM (≈ 3.15 µg/mL) |
| – | 10 (≈ 26.5 µg/mL) | 40 (≈ 106 µg/mL) | CC[C@H](C)[C@H](NC(=O)[C@H](CCCCN)NC(=O)[C@H](CS)NC(=O)[C@H](C)NC(=O)[C@@H](NC(=O)[C@H](Cc1ccccc1)NC(=O)CNC(=O)[C@H](CC(C)C)NC(=O)CNC(=O)[C@@H](NC(=O)[C@H](CCCCN)NC(=O)CNC(=O)[C@H](CC(C)C)NC(=O)[C@H](CC(N)=O)NC(=O)[C@H](CCCCN)NC(=O)[C@H](CC(C)C)NC(=O)[C@@H](NC(=O)[C@H](CO)NC(=O)[C@H](CC(C)C)NC(=O)[C@H](CCSC)NC(=O)[C@@H](N)CO)C(C)C)C(C)C)C(C)C)C(=O)N[C@@H](CC(N)=O)C(=O)N[C@@H](CCCCN)C(=O)N[C@@H](CCCCN)C(=O)N[C@@H](CS)C(=O)O [SMLSVLKNLGKVGLGFVACKINKKC] | MIC (Candida albicans): 40 µM (≈ 106 µg/mL) |
| ≥ 118 | 118 (≈ 256 µg/mL) | > 118 | CC(C)C[C@H](NC(=O)[C@@H](N)Cc1ccccc1)C(=O)NCC(=O)N[C@H](C(=O)N[C@H](C(=O)N[C@@H](Cc1ccccc1)C(=O)N[C@@H](CCCCN)C(=O)N[C@@H](CCCCN)C(=O)N[C@@H](C)C(=O)N[C@@H](CO)C(=O)N[C@@H](CCCCN)C(=O)N[C@H](C(=O)N[C@@H](Cc1ccccc1)C(=O)N1CCC[C@H]1C(=O)N[C@@H](C)C(=O)N[C@H](C(=O)N[C@@H](Cc1ccccc1)C(=O)NCC(=O)N[C@@H](CCCCN)C(=O)N[C@H](C(=O)O)C(C)C)C(C)C)C(C)C)C(C)C)C(C)C [FLGVVFKKASKVFPAVFGKV] | – |
| ≥ 125 | > 125 | – | CC[C@H](C)[C@H](N)C(=O)N[C@@H](C)C(=O)N[C@@H](CO)C(=O)N[C@@H](C)C(=O)N[C@H](C(=O)N1CCC[C@H]1C(=O)N[C@H](C(=O)N[C@@H](CS)C(=O)N[C@H](C(=O)N[C@@H](CCCCN)C(=O)NCC(=O)N[C@@H](CCCCN)C(=O)N[C@H](C(=O)N[C@@H](CO)C(=O)N[C@@H](CCCCN)C(=O)N[C@@H](CO)C(=O)N[C@@H](Cc1ccc(O)cc1)C(=O)N[C@H](C(=O)N[C@@H](CO)C(=O)N[C@H](C(=O)O)C(C)C)[C@@H](C)CC)[C@@H](C)CC)C(C)C)C(C)C)C(C)C [IASAVPVCVKGKISKSYISV] | – |
| – | – | – | CC(C)C[C@H](NC(=O)[C@H](CC(C)C)NC(=O)[C@H](CCCCN)NC(=O)[C@H](CCCCN)NC(=O)[C@H](CC(C)C)NC(=O)[C@H](CC(=O)O)NC(=O)[C@H](CCCCN)NC(=O)[C@H](CC(C)C)NC(=O)[C@@H](N)Cc1ccccc1)C(N)=O [FLKDLKKLL] | MIC [1]: > 115 µM; MIC [2]: > 115 µM; MIC [3]: 14.3 µM (≈ 16 µg/mL); MIC [4]: > 115 µM |
| – | 10 (≈ 27.1 µg/mL) | 20 (≈ 54.2 µg/mL) | CC[C@H](C)[C@H](NC(=O)[C@H](CCCCN)NC(=O)[C@H](CS)NC(=O)[C@H](CCCCN)NC(=O)[C@@H](NC(=O)[C@H](Cc1ccccc1)NC(=O)CNC(=O)[C@H](CC(C)C)NC(=O)CNC(=O)[C@@H](NC(=O)[C@H](CCCCN)NC(=O)CNC(=O)[C@H](CC(C)C)NC(=O)[C@H](CC(N)=O)NC(=O)[C@H](CCCCN)NC(=O)[C@H](CC(C)C)NC(=O)[C@@H](NC(=O)[C@H](CO)NC(=O)[C@H](CC(C)C)NC(=O)[C@H](CCSC)NC(=O)[C@@H](N)CO)C(C)C)C(C)C)C(C)C)C(=O)N[C@@H](CC(N)=O)C(=O)N[C@@H](CCCCN)C(=O)N[C@@H](CCC(N)=O)C(=O)N[C@@H](CS)C(=O)O [SMLSVLKNLGKVGLGFVKCKINKQC] | MIC (Candida albicans): 20 µM (≈ 54.2 µg/mL) |
| ≥ 103 | > 103 | – | CC(C)C[C@H](NC(=O)[C@H](CCC(=O)O)NC(=O)[C@H](Cc1ccccc1)NC(=O)[C@H](CCC(=O)O)NC(=O)[C@H](C)NC(=O)[C@H](CCC(=O)O)NC(=O)[C@H](Cc1ccccc1)NC(=O)[C@H](CC(=O)O)NC(=O)[C@@H](NC(=O)[C@H](CC(=O)O)NC(=O)[C@H](CO)NC(=O)[C@H](CCCCN)NC(=O)[C@H](CCCN=C(N)N)NC(=O)[C@H](CCCCN)NC(=O)[C@@H](N)CCCN=C(N)N)C(C)C)C(=O)N[C@@H](Cc1ccccc1)C(=O)N[C@@H](CCC(=O)O)C(=O)N[C@@H](CC(=O)O)C(=O)N[C@@H](CC(=O)O)C(=O)N[C@@H](CC(=O)O)C(=O)O [RKRKSDVDFEAEFELFEDDD] | – |
| ≥ 59.8 | > 59.8 | – | CC(C)C[C@H](NC(=O)[C@H](CO)NC(=O)[C@@H]1CCCN1)C(=O)N[C@@H](CC(C)C)C(=O)N[C@@H](Cc1ccc(O)cc1)C(=O)N[C@@H](CCCCN)C(=O)N[C@@H](C)C(=O)N[C@@H](CCCCN)C(=O)N[C@@H](C)C(=O)N[C@H](C(=O)N[C@@H](Cc1ccccc1)C(=O)N[C@@H](CS)C(=O)N[C@@H](CCCCN)C(=O)N1CCC[C@H]1C(=O)N[C@@H](CO)C(=O)N[C@@H](C)C(=O)N[C@H](C(=O)N[C@@H](C)C(=O)N[C@H](C(=O)N[C@@H](Cc1ccccc1)C(=O)O)C(C)C)C(C)C)C(C)C [PSLLYKAKAVFCKPSAVAVF] | – |
| ≥ 56.8 | 7.1 (≈ 16 µg/mL) | 56.8 (≈ 128 µg/mL) | CC(C)C[C@H](NC(=O)[C@H](CCCCN)NC(=O)[C@H](Cc1ccccc1)NC(=O)[C@@H](NC(=O)[C@H](CCCCN)NC(=O)CNC(=O)[C@H](CC(C)C)NC(=O)[C@@H](N)Cc1ccccc1)C(C)C)C(=O)N[C@@H](C)C(=O)N[C@@H](CO)C(=O)N[C@@H](CCCCN)C(=O)N[C@H](C(=O)N[C@@H](Cc1ccccc1)C(=O)N1CCC[C@H]1C(=O)N[C@@H](C)C(=O)N[C@H](C(=O)N[C@@H](Cc1ccccc1)C(=O)N[C@@H](CCCCN)C(=O)N[C@@H](CCCCN)C(=O)N[C@H](C(=O)O)C(C)C)C(C)C)C(C)C [FLGKVFKLASKVFPAVFKKV] | – |
